Assay results: patent publication US20240059710A1, “KRAS G12D Inhibitors” (Jacobio Pharmaceuticals Co., Ltd., priority 2020, published 2024)
Like-named read-outs stand apart in the source and are kept apart here.

Legend:
AsPC-1 = assay: Cell growth inhibition assay (AsPC-1); assay type: cell-based; conditions: AsPC-1, 6 days incubation, CellTiter-Glo
Method: (§1) 4. Cell Growth Inhibition Assay
AsPC-1 cultured in RPMI-1640 medium (Gibco) containing 10% fetal bovine serum (Gibco). Cells in culture medium were plated in 96-well plates at a concentration of 1000 cells/well ([…]) and allowed to attach overnight.
(§2) The next day, compounds were diluted in culture medium and added to the plates. After 6 days incubation in a 37° C./5% CO2 cell incubator, the cell viability was detected by CellTiter-Glo® Luminescent Cell Viability Assay kit (Promega). Luminescent signals were read on Tecan Spark multimode microplate reader and analyzed using a 4-parameter logistic model to calculate IC50 values.

[1] = target: T1, GDP-loaded HIS-KRAS (G12D, aa 1-169) (Homo sapiens, UniProt P01116, G12D); assay: SOS1 catalyzed nucleotide exchange assay; assay type: biochemical; conditions: SOS1 ExD, TR-FRET, 4 hours at 25° C.
T1 construct: GDP-loaded HIS-KRAS (G12D, aa 1-169)
Procedure, shortened: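 Compound was preincubated 15 min with 1.5 nM GDP-loaded KRAS G12D (final 5 nM GDP). SOS1 ExD (aa 564-1049, 0.5 µM), 80 nM BODIPY FL GTP and anti-His Tb antibody were then added for 4 h at 25 °C. The TR-FRET 515/486 ratio was normalized between DMSO and no-KRAS wells, and IC50 came from 4-parameter fits.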

AGS = assay: Cell growth inhibition assay (AGS); assay type: cell-based; conditions: 6 days incubation, CellTiter-Glo
Method: as §1
AGS cultured in F12K medium (Gibco) containing 10% fetal bovine serum (Gibco). Cells in culture medium were plated in 96-well plates at a concentration of 500 cells/well ([…]) and allowed to attach overnight.
as §2

[2] = target: T2, GppNp-loaded HIS-KRAS (G12D, aa 1-169) / cRAF RBD (Homo sapiens, UniProt P01116, G12D); assay: GTP-KRAS and cRAF interaction assay; assay type: binding; conditions: HTRF, 2 hours at 25° C.
T2 construct: GppNp-loaded HIS-KRAS (G12D, aa 1-169)
Procedure, shortened: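 GppNp-loaded KRAS G12D (2.0 nM) preincubated 15 min with compound, then cRAF RBD (35 nM) and HTRF antibodies added for 2 h at 25° C with 100 μM GTP final. Ratios normalized to DMSO and no-KRAS controls; IC50 by 4-parameter fit.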

[3] = test system: AGS cells expressing KRAS G12D; assay: Phospho-ERK1/2(THR202/TYR204) HTRF assay; assay type: cell-based; conditions: 2 hours incubation, read-out: AGS p-ERK IC50
Method: AGS cells expressing KRAS G12D were cultured in F12K medium (Gibco) containing 10% fetal bovine serum (Gibco). The AGS cells in culture medium were seeded in 96-well plates at a concentration of 40,000 cells/well and then put in a 37° C./5% CO2 cell incubator to incubate overnight. The next day, culture medium was removed and the compound diluted in assay medium (F12K, 0.1% FBS) was added in each well. After 2 hours incubation in a 37° C./5% CO2 cell incubator, the assay medium in 96-well plates was removed, then 50 μL of 1× blocking reagent-supplemented lysis buffer (Cisbio) was added and the plates were incubated at 25° C. for 45 min with shaking. 10 μL of cell lysates from the 96-well plates were transferred to a 384-well plate (Greiner) containing 2.5 μL/well HTRF® pre-mixed antibodies (Cisbio 64AERPEH). Incubate 4 hours at 25° C. and then read HTRF signals on Tecan Spark multimode microplate reader. The data were analyzed using a 4-parameter logistic model to calculate IC50 values.

T2 sequence (P01116 1-169 isoform P01116-2 G12D): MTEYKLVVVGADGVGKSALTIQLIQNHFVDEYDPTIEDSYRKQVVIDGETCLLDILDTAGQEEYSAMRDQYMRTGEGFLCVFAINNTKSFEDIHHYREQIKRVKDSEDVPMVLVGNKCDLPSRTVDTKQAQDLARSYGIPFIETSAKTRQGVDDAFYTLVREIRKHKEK
T1 sequence (P01116 1-169 isoform P01116-2 G12D): as above

SMILES	IC50 (AsPC-1) [µM]	IC50 [1] [µM]	IC50 (AGS) [µM]	IC50 [2] [µM]	IC50 [3] [µM]	IC50 (AsPC-1; Homo sapiens, ASPC1, 144 h) [µM]	IC50 (AGS; Homo sapiens, 144 h) [µM]	IC50 ([3]; Homo sapiens) [µM]
C#Cc1cccc2cc(O)cc(-c3ccc4c(N5CC6CCC(C5)N6)nc(OCC5(CN6CCC[C@H](F)C6)CC5)nc4c3F)c12 [Compound 113]	0.0184	0.0126	0.00435	0.124	0.0159			
C#Cc1cccc2cc(O)cc(-c3cc4nc(OCC5(CN6CCOCC6)CC5)nc(N5CC6CCC(C5)N6)c4cc3C)c12 [Compound 118]		0.0192		0.165		0.145	0.0311	0.064
C#Cc1c(F)ccc2cc(O)cc(-c3c(Cl)cc4c(C5CC6CCC(C5)N6)nc(OC[C@@]56CCCN5C[C@H](F)C6)nc4c3F)c12 (stereo partly drawn) [Compound 100]		0.00593		0.055		0.033	0.00568	0.00171
C#Cc1cccc2cc(O)cc(-c3ccc4c(N5CC6CCC(C5)N6)nc(OCC5(CN6CCCCC6)CC5)nc4c3F)c12 [Compound 131]		0.0091		0.0904		0.055	0.0134	0.00986
C#Cc1cccc2cc(O)cc(-c3c(F)cc4c(N5CC6CCC(C5)N6)nc(OCC5(CN6CCOCC6)CC5)nc4c3C)c12 [Compound 101]		0.00159		0.277		0.113	0.0396	0.125
C#Cc1cccc2cc(O)cc(-c3cc4nc(OCC5(CN6CCOCC6)CC5)nc(N5CC6CCC(C5)N6)c4cc3F)c12 [Compound 108]		0.0281		0.298		0.0636	0.0219	0.019
C#Cc1cccc2cc(O)cc(-c3c(Cl)cc4c(N5CC6CCC(C5)N6)nc(OC[C@@]56CCCN5C[C@H](F)C6)nc4c3F)c12 (single isomer, unassigned) [Compound 72B]	0.0487	0.0033	0.00471	0.023	0.00151			
C#Cc1cccc2cc(O)cc(-c3ccc4c(N5CC6CCC(C5)N6)nc(OC[C@@]56CCCN5C[C@H](F)C6)nc4c3Cl)c12 [Compound 81]		0.00949		0.225		0.153	0.0162	0.0139
C#Cc1cccc2cc(O)cc(-c3ccc4c(N5CC6CCC(C5)N6)nc(OCC5(CN6CCOCC6)CC5)nc4c3C)c12 [Compound 132]		0.0257		0.794		0.111	0.0332	0.0964
C#Cc1c(Cl)ccc2cc(O)cc(-c3c(F)cc4c(N5CC6CCC(C5)N6)nc(OCC5(CN6CCOCC6)CC5)nc4c3F)c12 [Compound 126]		0.00207		0.0247		0.0143	0.000486	0.0208
C#Cc1cccc2cc(O)cc(-c3cc4nc(OC[C@@]56CCCN5C[C@H](F)C6)nc(N5CC6CCC(C5)N6)c4cc3Cl)c12 [Compound 97]		0.00764		0.0446		0.127	0.0453	0.00522
C#Cc1c(F)ccc2cc(O)cc(-c3ccc4c(N5CC6CCC(C5)N6)nc(OCC5(CN6CCC(O)CC6)CC5)nc4c3F)c12 [Compound 76]		0.00433		0.0648		0.671	0.0721	0.0083
C#Cc1cccc2cc(O)cc(-c3c(C)cc4c(N5CC6CCC(C5)N6)nc(OCC5(CN6CCOCC6)CC5)nc4c3F)c12 [Compound 40]		0.0277		0.0743		0.0555	0.0154	0.00372
C#Cc1cccc2cc(O)cc(-c3c(CCC#N)cc4c(N5CC6CCC(C5)N6)nc(OCC5(CN6CCOCC6)CC5)nc4c3F)c12 [Compound 44]		0.00214		0.0182		0.185	0.0132	0.00381
CCc1cccc2cc(O)cc(-c3ccc4c(N5CC6CCC(C5)N6)nc(OCC5(CN6CCOCC6)CC5)nc4c3F)c12 [Compound 47]		0.00721		0.262		0.0763	0.068	0.0296
C#Cc1c(F)ccc2cc(O)cc(-c3ccc4c(N5CC6CCC(C5)N6)nc(OCC5(CN6CCC(C(=O)O)CC6)CC5)nc4c3F)c12 [Compound 77]		0.00511		0.0741		> 10	1.18	0.173
Oc1cc(-c2c(Cl)cc3c(N4CC5CCC(C4)N5)nc(OCC45CCCN4C[C@H](F)C5)nc3c2F)c2c(Cl)cccc2c1 (stereo partly drawn) [Compound 90]		0.00535		0.0848		0.1	0.0146	0.0124
C#Cc1cccc2cc(O)cc(-c3c(C#N)cc4c(N5CC6CCC(C5)N6)nc(OCC5(CN6CCOCC6)CC5)nc4c3F)c12 (single isomer, unassigned) [Compound 60B]	0.207	0.0125	0.0131	0.0629	0.00696			
CCc1cccc2cc(O)cc(-c3ccc4c(N5CC6CCC(C5)N6)nc(OC[C@@]56CCCN5C[C@H](F)C6)nc4c3F)c12 [Compound 91]		0.00482		0.102		0.0316	0.0123	0.00854
C#Cc1cccc2cc(O)cc(-c3c(F)cc4c(N5CC6CCC(C5)N6)nc(OCC5(CN6CCOCC6)CC5)nc4c3Cl)c12 [Compound 43]		0.018		0.417		0.0436	0.0183	0.0178
C#Cc1cccc2cc(O)cc(-c3c(Cl)cc4c(N5CC6CCC(C5)N6)nc(OCC5(CN6CCOCC6)CC5)nc4c3Cl)c12 (single isomer, unassigned) [Compound 107B]		0.00316		0.399		0.395	0.15	0.0576
C#Cc1cccc2cc(O)cc(-c3cc4nc(OCC5(CN6CCOCC6)CC5)nc(N5CC6CCC(C5)N6)c4cc3C#N)c12 [Compound 61]		0.0235		0.284		0.897	0.13	0.0328
C#Cc1c(OC)ccc2cc(O)cc(-c3ccc4c(N5CC6CCC(C5)N6)nc(OCC5(CN6CCOCC6)CC5)nc4c3F)c12 [Compound 94]		0.00534		2.52		1.15	0.333	0.0285
C#Cc1cccc2cc(O)cc(-c3c(C4CC4)cc4c(N5CC6CCC(C5)N6)nc(OCC5(CN6CCOCC6)CC5)nc4c3F)c12 (single isomer, unassigned) [Compound 38B]	0.158	0.000727	0.0105	0.0132	0.0124			
C#Cc1cccc2cc(O)cc(-c3ccc4c(N5CC6CCC(C5)N6)nc(OCC5(CN6CCOC[C@H]6C)CC5)nc4c3F)c12 [Compound 115]		0.0282		0.121		0.00752	0.00423	0.00423
C#Cc1cccc2cc(O)cc(-c3cc4nc(OCC5(CN6CCOCC6)CC5)nc(N5CC6CCC(C5)N6)c4cc3OC)c12 [Compound 120]		0.0374		0.307		0.18	0.0281	0.0199
C#Cc1cccc2cc(O)cc(-c3cc4nc(OCC5(CN6CCOCC6)CC5)nc(N5CC6CCC(C5)N6)c4cc3CC)c12 [Compound 109]		0.0485		0.14		0.0869	0.0283	0.0519
